For this experiment, the system named is Staphylococcus aureus. Put plainly: Aggregation of fluorescently labelled microorganisms, MAC (Example 1). Type of experiment: cell-based. The procedure: Microbial cells were fluorescently labelled with fluorescein isothiocyanate (FITC, Sigma-Aldrich, St Louis, MO, USA) or SYTO™ 24 green fluorescent nucleic acid stain (Thermo Fisher, Rockford, IL, USA). FITC labelling was performed by incubation in a 0.2 M NaHCO3 pH 9.5 buffer with a final concentration of 0.2 mg/ml FITC (from a 2 mg/ml FITC stock in DMSO) and shaking for 1 hour at 37° C. and subsequently extensively washing with phosphate buffered saline (PBS). SYTO-24 labelling was performed in PBS using a final 1 μM concentration of the dye for at least 30 minutes and subsequently washing with PBS. […] Aggregation was examined immediately or at a more convenient moment using a fluorescence microscope. […]
The Minimal Aggregation Concentration (MAC), the lowest concentration of polysaccharides still convincingly showing microbial aggregation, was determined by 2-fold serial dilutions and expressed in mg or microgram polysaccharides/ml. […] Quantification of samples was based on dry weight determination unless otherwise indicated.
10× concentrated Aloe vera leaf juice, a 10× decolorized liquid made from purified inner leaf fillet that contained not less than 10% polysaccharides, was purchased at a commercial supplier (ACTIValoe® Aloe vera Gel 10X-D, AloeCorp, Harlingen, TX, USA). […] The Minimal Aggregation Concentration (MAC) of the >12 kDa fraction was determined and compared to that of D-mannose.

Some results are limits rather than exact numbers.

With `O=C[C@@H](O)[C@@H](O)[C@H](O)[C@H](O)CO` [D-mannose], under “Minimal Aggregation Concentration towards Staphylococcus aureus, mg polysaccharides/ml”, the MAC is greater than 16 mg/mL. Also, the aggregating activity result (highest concentration tested (16 mg/ml)) is given as “did not have aggregating activity”.

Source of the values: US12589130B2, “Aloe extracts for microbial neutralisation” (2QR RESEARCH B.V., priority 2020, dated 2026).
